Experimental data published in the NIST ThermoML archive (doi:10.1016/j.jct.2007.05.005).

Assay: xn = mol fraction of the nth substance listed
Settings: 101.3 kPa, Liquid; for speed of sound: Sing-around technique in a fixed-path interferometer

CCOC(C)(C)C [2-ethoxy-2-methylpropane] + Cc1ccccc1
Settings | mass density, 288.15 K [kg/m3] | mass density, 298.15 K [kg/m3] | mass density, 323.15 K [kg/m3] | speed of sound, 288.15 K [m/s] | speed of sound, 298.15 K [m/s] | speed of sound, 323.15 K [m/s]
x1 = 0.052 | 864.001 | 854.662 | 831.025 | 1332.1 | 1288.3 | 1181.6
x1 = 0.108 | 855.965 | 846.56 | 822.744 | 1315.2 | 1271.3 | 1164
x1 = 0.217 | 840.966 | 831.445 | 807.297 | 1282.6 | 1238.1 | 1130.6
x1 = 0.301 | 829.662 | 820.051 | 795.645 | 1258.9 | 1214.7 | 1106.5
x1 = 0.41 | 815.355 | 805.638 | 780.903 | 1228 | 1183.6 | 1075
x1 = 0.505 | 803.55 | 793.739 | 768.747 | 1202.7 | 1158.1 | 1049.3
x1 = 0.615 | 789.864 | 779.951 | 754.631 | 1173.5 | 1129.1 | 1019.7
x1 = 0.701 | 779.62 | 769.63 | 744.088 | 1151.5 | 1107 | 997.51
x1 = 0.805 | 767.503 | 757.422 | 731.601 | 1125.3 | 1080.5 | 970.75
x1 = 0.897 | 757.112 | 746.951 | 720.871 | 1102.8 | 1058.2 | 948.16
x1 = 0.95 | 751.062 | 740.859 | 714.65 | 1089.8 | 1045 | 934.78
x1 = 1 | 745.656 | 735.357 | 709.007 | 1078.9 | 1033.2 | 922.48

CCOC(C)(C)C [2-ethoxy-2-methylpropane] + CCO
Settings | mass density, 288.15 K [kg/m3] | mass density, 298.15 K [kg/m3] | mass density, 323.15 K [kg/m3] | speed of sound, 288.15 K [m/s] | speed of sound, 298.15 K [m/s] | speed of sound, 323.15 K [m/s]
x1 = 0.049 | 790.26 | 781.555 | 759.223 | 1171.4 | 1135.6 | 1048.6
x1 = 0.097 | 786.997 | 778.154 | 755.418 | 1165.8 | 1128.9 | 1038.1
x1 = 0.198 | 780.646 | 771.547 | 748.104 | 1150.9 | 1112.5 | 1018.3
x1 = 0.303 | 774.648 | 765.324 | 741.204 | 1137.4 | 1097.5 | 999.82
x1 = 0.395 | 770.061 | 760.556 | 735.962 | 1127.4 | 1086.4 | 986.27
x1 = 0.504 | 765.017 | 755.325 | 730.194 | 1116.6 | 1074.6 | 971.7
x1 = 0.606 | 760.667 | 750.815 | 725.266 | 1108.4 | 1065.5 | 959.88
x1 = 0.691 | 757.429 | 747.458 | 721.666 | 1101.4 | 1058 | 950.98
x1 = 0.802 | 753.45 | 743.339 | 717.148 | 1094 | 1049.8 | 941.56
x1 = 0.895 | 749.87 | 739.659 | 713.326 | 1087.8 | 1043 | 933.37
x1 = 0.935 | 748.296 | 738.056 | 711.669 | 1084.8 | 1039.8 | 929.43
x1 = 1 | 745.656 | 735.357 | 709.007 | 1078.9 | 1033.2 | 922.48

CCOC(C)(C)C [2-ethoxy-2-methylpropane] + c1ccccc1
Settings | mass density, 288.15 K [kg/m3] | mass density, 298.15 K [kg/m3] | mass density, 323.15 K [kg/m3] | speed of sound, 288.15 K [m/s] | speed of sound, 298.15 K [m/s] | speed of sound, 323.15 K [m/s]
x1 = 0.049 | 874.335 | 863.764 | 837.01 | 1327.2 | 1280 | 1165.5
x1 = 0.102 | 864.201 | 853.699 | 827.068 | 1308.3 | 1261.4 | 1147.2
x1 = 0.204 | 846.222 | 835.811 | 809.343 | 1274.8 | 1228.3 | 1114.7
x1 = 0.299 | 830.929 | 820.575 | 794.184 | 1245.6 | 1199.4 | 1086.3
x1 = 0.393 | 816.969 | 806.647 | 780.301 | 1219.1 | 1173 | 1060
x1 = 0.494 | 802.925 | 792.628 | 766.309 | 1192.1 | 1146.5 | 1034.2
x1 = 0.589 | 790.686 | 780.408 | 754.084 | 1168.6 | 1123.6 | 1011.7
x1 = 0.696 | 777.916 | 767.647 | 741.314 | 1143.5 | 1099 | 988.29
x1 = 0.799 | 766.357 | 756.096 | 729.753 | 1120.3 | 1075.7 | 965.1
x1 = 0.906 | 755 | 744.747 | 718.393 | 1097.6 | 1053.3 | 942.92
x1 = 0.953 | 750.242 | 739.991 | 713.647 | 1087.8 | 1044 | 933.45
x1 = 1 | 745.656 | 735.357 | 709.007 | 1078.9 | 1033.2 | 922.48
